This is an account of results in patent US6900239B2, “Tumor chemopotentiation using isocoumarin derivatives” (ILWZ ILEX Products, Inc., priority 2000, dated 2005).

Some results are limits rather than exact numbers.

One experiment deals with U266 cells. The experiment in a line: Cell viability by MTT assay. Type of experiment: cell-based, human. On the procedure: (§1) The human multiple myeloma cell line MM1.S was maintained in RPMI1640 medium supplemented with 10% fetal bovine serum, 100 units/ml penicillin, and 100 μg/ml streptomycin at 37° C. in an atmosphere of 5% CO2 in air. Cells (3×10^4 cells/well) were seeded in 96 well-plates and incubated with increasing concentrations of DEX or DOX in the presence or absence of NM-3. NM-3 was added at concentrations of 0, 50, 100 and 200 μg/ml 2 hours before the addition of DOX or DEX. After 24 hours of DOX or DEX exposure, 10 μl of MTT reagent (Roche Molecular Biochemicals, final concentration 0.5 mg/ml) was added to each well and allowed to incubate for 4 hours. After the incubation, 100 μl of solubilization solution (10% sodium dodecyl sulfate in 0.01M HCl) was added to each well and allowed to incubate overnight. Optical density at 565 nm was determined using a spectrophotometer (Molecular Devices Corp.).
(§2) The effects of NM-3 in combination with dexamethasone on the viability of RPM18662 and U266 human multiple meyeloma cells were investigated. Experimental conditions were as described in Example 11, with the exception that cells were seeded at 6×10^3 cells/well and the cells were incubated with the appropriate concentrations of NM-3 and DEX for either 48 or 72 hours prior to addition of the MTT reagent.

The test system of the next experiment is RPMI8662 cells. The experiment in a line: Cell viability by MTT assay. Type of experiment: cell-based, human. Here is the method: as §1, §2
Experiment [1] deals with human tumor cells and normal mouse cells. The experiment in a line: Cell growth (WST-1), summary over all cell lines. Type of experiment: cell-based. On the procedure: To determine the extent to which NM-3 [2-(8-hydroxy-6-methoxy-1-oxo-1H-2-benzopyran-3-yl) propionic acid] inhibited the proliferation of, or was cytotoxic toward, human tumor cells and normal mouse cells, a variety of cell lines were grown in the presence of NM-3. The human cell lines used were K562 (leukemia cells), HT29 (colon tumor cells) HT1080 (reticulum blast sarcoma cells), and MCF7 (breast tumor cells). The mouse cells used were NIH3T3 cells (fibroblasts). All cell lines were cultured in 96-well plates to a density of 2-5×10^3 cells/well. Culture medium (RPMI 1640 plus 10% FBS) alone or containing NM-3 at one of several concentrations tested was then added to the cultures which were allowed to grow for an additional 3 days. To assess cell growth, 10 μl of WST-1 reagent (a chromogenic substrate for living cells) was added to each well and incubation continued for 3 hrs at 37° C. Absorbance at 450 nm was then determined using a plate reader.
A general note: Tetrazolium assays rely on reduction of a dye to a coloured formazan, in cell work by metabolically active cells.

The subject of experiment [2] is MDAMB-435 human breast tumor xenografts. The experiment in a line: MDAMB-435 orthotopic model, NM-3 with 5-Fluorouracil. Type of experiment: in vivo, female NCRNU nude mice. Particulars: NM-3 100 mg/kg/day i.p. alone. Here is the method:
In order to evaluate the antitumor activity of NM-3 in combination with 5-Fluorouracil (5-FU) vs. MDAMB-435 human breast tumor xenografts, female NCRNU nude mice were implanted with MDAMB-435 cells into the subaxillary mammary fat pad. When the tumors were between 50 and 80 mm^3, NM-3 was administered via intraperitoneal (i.p.) injection daily at 10 and 100 mg/kg; 5-FU was administered via i.p. injection on days 0 and 14, at 10 mg/kg. Mice were weighed twice weekly, and tumor measurements were taken by calipers twice weekly. Mice were euthenized at the end of the treatment period. Upon termination, the mice were weighed, sacrificed and their tumors were excised.
Initial studies were conducted with 5-FU to determine the optimal dose of this agent when administered in combination with NM-3.

Experiment [3] deals with Lewis Lung Carcinoma (LLC). The experiment in a line: NM-3 and ionizing radiation, tumor growth. Type of experiment: in vivo, C57BL/6 nude mice. On the procedure: (§3) The effects of NM-3 and IR on tumor growth were assessed in Lewis Lung Carcinoma (LLC), Seg-1, and SQ-20B tumors implanted in C57BL/6 nude mice.
By day 7, LLC tumors in the control group and the NM-3 group grew to 8.02±1.24 and 6.19±0.44 times original volume, respectively. Animals in these treatment groups were sacrificed on day 7 due to tumor burden. LLC tumors in the IR (20+20 Gy) group initially grew and then regressed to 1.06±0.08 times original volume (day 7). Regression was followed by regrowth to 2.98±0.83 times original volume at day 15 when the experiment was terminated. […] (FIG. 8A)

The next experiment deals with Seg-1 tumors. In words: NM-3 and ionizing radiation, tumor growth. Type of experiment: in vivo, C57BL/6 nude mice. On the procedure: as §3
Seg-1 tumors in the control group and the NM-3-treated group grew to 6.30±0.42 and 6.74±0.62 times original volume by day 15 at which time the animals were sacrificed due to tumor burden. Tumors in the IR (4 doses of 5 Gy) group initially regressed (0.64±0.03 times original volume, day 7) and then regrew (1.83±0.11, day 15). […] (FIG. 8B).

Another experiment has as its system PC6. The experiment in a line: Cell growth (WST-1) in the presence of NM-3. Conditions: Homo sapiens, PC-6, 72 h; 3 days culture with NM-3. Type of experiment: cell-based.
The test system of another experiment is SQ-20B tumors. In words: NM-3 and ionizing radiation, tumor growth. Format: in vivo, C57BL/6 nude mice. Here is the method:
as §3
In experiments conducted using SQ-20B tumors, control tumors grew to 5.2±0.94 times original volume by day 20. […] Animals in these two groups were subsequently sacrificed because of tumor burden. […] By day 38, IR treated tumors regrew to twice original volume.

For the next experiment, the system named is IMC carcinoma. The experiment in a line: Combination with cyclophosphamide, tumor weight. Particulars: for Solid Weight mg ± S.D.: day 42. Format: in vivo, CDF1 mice. On the procedure:
To determine the effect on IMC carcinoma growth of NM-3 treatment combined with simultaneous cyclophosphamide treatment, IMC carcinoma cells (1×10^6 cells per mouse) were subcutaneously transplanted into CDF1 mice (female, 10 weeks old) in the inguinal area. NM-3 which was dissolved using 5% DMSO+Tween80, was continuously orally administered from day 1 to day 41 after transplantation except on day 14, when cyclophosphamide (300 mg/kg) was injected intravenously.

Where [4] appears, read: NM-3 alone, 50 and 100 μg/ml, 72 hours preincubation.
Where [5] appears, read: NM-3 alone, 48 hour preincubation.
Where [6] appears, read: NM-3 combined with IR (4 doses of 5 Gy).
Where [7] appears, read: NM-3 1 mg/kg p.o. days 1-13, 15-41 alone.
The mark [8] stands for this setting: NM-3 5 mg/kg p.o. days 1-13, 15-41 alone.

One may read the IC50 as the concentration needed to halve the response being measured. `COc1cc(O)c2c(=O)oc(C(C)C(=O)O)cc2c1` (stereo not drawn) [NM-3, 2-(8-hydroxy-6-methoxy-1-oxo-1H-2-benzopyran-3-yl) propionic acid]: the “Potentiation of DEX-induced cell death” value in the experiment with U266 cells (48 or 72 hours) and in the experiment with RPMI8662 cells (48 or 72 hours) was “potentiated DEX-induced cell death” each time. The “Decrease in cell viability” value in the experiment with U266 cells (setting [4]) and in the experiment with RPMI8662 cells (setting [4]) was “less evident” in each case. The Cell viability entry in the experiment on U266 cells (setting [5]) and in the experiment with RPMI8662 cells (setting [5]) was “dose dependent decrease in cell viability” throughout. Further, the IC50 is > 100 µg/mL in experiment [1] and > 500 µg/mL with PC6. Further, the “% Tumor Growth Inhibition” value in experiment [2] was determined as 24.1%. Also, the Tumor volume in experiment [3] (NM-3 alone, day 7) stood at 6.19±0.44 times original volume; in the experiment with Seg-1 tumors (NM-3 alone, day 15), 6.74±0.62 times original volume; with SQ-20B tumors (NM-3 alone, day 20), 4.3±1.03 times original volume. Further, the “Mean tumor volume compared with IR alone” value is listed as “significantly reduced mean tumor volume” in experiment [3] (NM-3 combined with IR (20+20 Gy), day 3, 4, 5, 9, 11, 13 and 15); “significantly reduced mean tumor volume” in the experiment with Seg-1 tumors (NM-3 combined with IR (4 doses of 5 Gy), days 15, 17, 19, 21 and 23). Besides, in the experiment with Seg-1 tumors (setting [6]), the “Growth delay compared to IR alone group” value is 3 days. Further, the “Growth delay compared to the control group” value in the experiment with Seg-1 tumors (setting [6]) came out at 14 days. In addition, the Tumor size result with SQ-20B tumors (NM-3 and IR (65 Gy), by day 6) is “doubled in size”. Moreover, the Tumor regrowth entry in the experiment on SQ-20B tumors (NM-3 and IR (65 Gy), by day 38, p=0.006 vs IR alone) was “failed to reach original volume”. In the experiment on SQ-20B tumors (NM-3 and IR (65 Gy), day 23), the “Tumor volume, % of original volume” value was 77%. Moreover, the “Inhibition (%)” value in the experiment on IMC carcinoma (setting [7]) was found to be 10.2%; in the experiment on IMC carcinoma (setting [8]), 12.6%. Moreover, the “Solid Weight mg ± S.D.” value with IMC carcinoma (setting [7]) is given as 11,093.0 ± 2040.6 mg; in the experiment with IMC carcinoma (setting [8]), 10792.4 ± 2979.7 mg. Further, the “Tumor weight versus control” value in the experiment on IMC carcinoma (NM-3 alone) is given as “did not significantly reduce tumor weight”.
